Measured values: patent US20200181104A1, “SSAO INHIBITORS AND USES THEREOF” (METACRINE, INC., priority 2018, published 2020)
Where a name gives a salt, the structure may show the parent alone.

The molecules below were run against T1, Recombinant Human SSAO/VAP-1/AOC3 (Homo sapiens, UniProt Q16853) (assay: Human Semicarbazide-Sensitive Amine Oxidase (SSAO) Assay). Details: recombinant enzyme, 30 minutes preincubation at 37° C., benzylamine substrate, Amplex Ultra Red/HRP fluorescence.
T1 construct: purchased R&D systems 3957-AO
T1 sequence (Q16853 1-763): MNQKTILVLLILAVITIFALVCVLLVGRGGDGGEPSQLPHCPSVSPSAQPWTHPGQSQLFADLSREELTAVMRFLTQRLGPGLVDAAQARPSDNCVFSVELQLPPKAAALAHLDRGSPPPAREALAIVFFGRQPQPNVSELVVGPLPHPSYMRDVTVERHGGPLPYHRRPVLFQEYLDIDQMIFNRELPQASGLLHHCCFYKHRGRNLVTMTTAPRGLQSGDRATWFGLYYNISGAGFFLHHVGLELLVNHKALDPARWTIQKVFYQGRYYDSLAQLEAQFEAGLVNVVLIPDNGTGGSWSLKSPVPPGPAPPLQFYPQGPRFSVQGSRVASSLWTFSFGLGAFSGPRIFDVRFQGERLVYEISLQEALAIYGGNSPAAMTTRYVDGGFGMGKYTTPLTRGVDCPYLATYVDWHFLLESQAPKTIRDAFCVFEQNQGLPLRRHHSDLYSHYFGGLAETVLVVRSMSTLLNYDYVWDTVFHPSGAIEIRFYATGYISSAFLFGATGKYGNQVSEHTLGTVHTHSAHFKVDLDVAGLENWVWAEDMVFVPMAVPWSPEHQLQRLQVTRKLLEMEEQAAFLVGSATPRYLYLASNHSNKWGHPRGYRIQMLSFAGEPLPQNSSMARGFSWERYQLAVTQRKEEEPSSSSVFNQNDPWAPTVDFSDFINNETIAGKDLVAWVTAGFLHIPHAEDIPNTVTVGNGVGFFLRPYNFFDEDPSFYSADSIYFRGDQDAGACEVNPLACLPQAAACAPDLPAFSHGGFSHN
Type: biochemical
How it was run: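 IC50 from kinetic Amplex Ultra Red/HRP fluorescence (ex 544, em 590 nm, 30-120 min) after benzylamine addition. Beforehand, 6-10 compound dilutions were preincubated 30 min at 37 °C with recombinant human SSAO in 50 mM HEPES (enzyme working concentration 2.5 μg/ml).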

Which IC50 does the source give for `COc1cc(CNC(=O)C23CCC(c4ccc(OC/C(=C/F)CN)cc4)(CC2)CC3)ccn1` [Compound 2.134, (E)-4-(4-((2-(aminomethyl)-3-fluoroallyl)oxy)phenyl)-N-((2-methoxpyridin-4-yl)methyl)bicyclo[2.2.2]octane-1-carboxamide] here?
The IC50 was no more than 10 nM.

With `NC/C(=C\F)COc1ccc(C23CCC(C(=O)NCCCO)(CC2)CC3)cc1` [Compound 2.61, (E)-4-(4-((2-(aminomethyl)-3-fluoroallyl)oxy)phenyl)-N-(3-hydroxypropyl)bicyclo[2.2.2] octane-1-carboxamide] as the molecule, how does the IC50 read?
The IC50 was no more than 10 nM.

How did the IC50 turn out when `COCC1(NC(=O)C23CCC(c4ccc(OC/C(=C/F)CN)cc4)(CC2)CC3)CCOCC1` [Compound 2.86, (E)-4-(4-((2-(aminomethyl)-3-fluoroallyl)oxy)phenyl)-N-(4-(methoxymethyl)tetrahydro-2H-pyran-4-yl)bicyclo[2.2.2]octane-1-carboxamide] was run?
The IC50 was no more than 10 nM.

Which IC50 does the source give for `N#CC1CN(C(=O)C23CCC(c4ccc(OC/C(=C/F)CN)cc4)(CC2)CC3)C1` [Compound 2.57, (E)-1-(4-(4-((2-(aminomethyl)-3-fluoroallyl)oxy)phenyl)bicyclo[2.2.2]octane-1-carbonyl)azetidine-3-carbonitrile] here?
Its IC50 is no more than 10 nM.

How did the IC50 turn out when `CO[C@@H](C)CNC(=O)C12CCC(c3ccc(OC/C(=C/F)CN)cc3)(CC1)CC2` [Compound 2.125, (S,E)-4-(4-((2-(aminomethyl)-3-3-fluoroallyl)oxy)phenyl)-N-(2-methoxypropyl)bicyclo[2.2.2] octane-1-carboxamide] was run?
The IC50 was no more than 10 nM.

`NC/C(=C\F)COc1ccc(C23CCC(C(=O)NC4CC5(CCOCC5)C4)(CC2)CC3)cc1` [Compound 2.114, (E)-4-(4-((2-(aminomethyl)-3-fluoroallyl)oxy)phenyl)-N-(7-oxaspiro[3.5]nonan-2-yl)bicyclo[2.2.2]octane-1-carboxamide] was tested. Which IC50 did it give?
Its IC50 is no more than 10 nM.

For `NC/C(=C\F)COc1ccc(C23CCC(C(=O)NC4CCC5(CC4)COC5)(CC2)CC3)cc1` [Compound 2.106, (E)-4-(4-((2-(aminomethyl)-3-fluoroallyl)oxy)phenyl)-N-(2-oxaspiro[3.5]nonan-7-yl)bicyclo[2.2.2]octane-1-carboxamide], which IC50 is on record?
Its IC50 is no more than 10 nM.

With `NC/C(=C\F)COc1ccc(C23CCC(C(=O)N4CC(O)(C5CC5)C4)(CC2)CC3)cc1` [Compound 2.99, (E)-(4-(4-((2-(aminomethyl)-3-fluoroallyl)oxy)phenyl)bicyclo [2.2.2]octan-1-yl)(3-cyclopropyl-3-hydroxyazetidin-1-yl)methanone] as the molecule, how does the IC50 read?
The IC50 was no more than 10 nM.

For `COc1nccc(CNC(=O)C23CCC(c4ccc(OC/C(=C/F)CN)cc4)(CC2)CC3)n1` [Compound 2.140, (E)-4-(4-((2-(aminomethyl)-3-fluoroallyl)oxy)phenyl)-N-((2-methoxypyrimidin-4-yl)methyl)bicyclo[2.2.2]octane-1-carboxamide], which IC50 is on record?
Its IC50 is no more than 10 nM.

`COCCN(C)C(=O)C12CCC(c3ccc(OC/C(=C/F)CN)cc3)(CC1)CC2` [Compound 2.79, (E)-4-(4-((2-(aminomethyl)-3-fluoroallyl)oxy)phenyl)-N-(2-methoxyethyl)-N-methylbicyclo[2.2.2]octane-1-carboxamide] was tested. Which IC50 did it give?
The IC50 was no more than 10 nM.

For `NC/C(=C\F)COc1ccc(C23CCC(C(=O)N4CCCC4)(CC2)CC3)cc1` [Compound 2.25, (E)-(4-(4-((2-(aminomethyl)-3-fluoroallyl)oxy)phenyl)bicyclo [2.2.2]octan-1-yl)(pyrrolidin-1-yl)methanone], which IC50 is on record?
The IC50 was no more than 10 nM.

For `NC/C(=C\F)COc1ccc(C23CCC(C(=O)N4CC(OCCO)C4)(CC2)CC3)cc1` [Compound 2.44, (E)-(4-(4-((2-(aminomethyl)-3-fluoroallyl)oxy)phenyl)bicyclo [2.2.2]octan-1-yl)(3-(2-hydroxyethoxy)azetidin-1-yl)methanone], which IC50 is on record?
Its IC50 is no more than 10 nM.

For `NC/C(=C\F)COc1ccc(C23CCCC(C(=O)NC4CCOCC4)(CC2)CC3)cc1` [Compound 10.01, (E)-5-(4-((2-(Aminomethyl)-3-fluoroallyl)oxy)phenyl)-N-(tetrahydro-2H-pyran-4-yl)bicyclo[3.2.2]nonane-1-carboxamide Hydrochloride], which IC50 is on record?
The IC50 was no more than 10 nM.

Which IC50 does the source give for `NC/C(=C\F)COc1ccc(C23CCC(NC(=O)CCO)(CC2)CC3)cc1` [Compound 7.01, (E)-N-(4-(4-((2-(aminomethyl)-3-fluoroallyl)oxy)phenyl)bicyclo [2.2.2]octan-1-yl)-3-hydroxypropanamide] here?
The IC50 was no more than 10 nM.

`CO[C@H]1CCC[C@@H](NC(=O)C23CCC(c4ccc(OC/C(=C/F)CN)cc4)(CC2)CC3)C1` [Compound 2.116, 4-(4-(((E)-2-(aminomethyl)-3-fluoroallyl)oxy)phenyl)-N-((1R,3S)-3-methoxycyclohexyl)bicyclo [2.2.2]octane-1-carboxamide] was tested. Which IC50 did it give?
The IC50 was no more than 10 nM.

With `NC/C(=C\F)COc1ccc(C23CCC(C(=O)O)(CC2)CC3)cc1` [Compound 2.05, (E)-4-(4-((2-(amino-methyl)-3-fluoroallyl)oxy)phenyl) bicyclo[2.2.2]octane-1-carboxylic acid] as the molecule, how does the IC50 read?
The IC50 was 10 to 100 nM.

For `COC[C@H]1C[C@@H](NC(=O)C23CCC(c4ccc(OC/C(=C/F)CN)cc4)(CC2)CC3)C1` [Compound 2.124, 4-(4-(((E)-2-(aminomethyl)-3-fluoroallyl)oxy)phenyl)-N-((1s,3s)-3-(methoxymethyl)cyclobutyl) bicyclo[2.2.2]octane-1-carboxamide], which IC50 is on record?
Its IC50 is no more than 10 nM.

How did the IC50 turn out when `NC/C(=C\F)COc1ccc(C23CCC(C(=O)N4CCC(O)CC4)(CC2)CC3)cc1` [Compound 2.14, (E)-(4-(4-((2-(aminomethyl)-3-fluoroallyl)oxy)phenyl)bicyclo[2.2.2]octan-1-yl) (4-hydroxypiperidin-1-yl)methanone] was run?
Its IC50 is no more than 10 nM.

Which IC50 does the source give for `COC1(CNC(=O)C23CCC(c4ccc(OC/C(=C/F)CN)cc4)(CC2)CC3)CCCCC1` [Compound 2.102, (E)-4-(4-((2-(aminomethyl)-3-fluoroallyl)oxy)phenyl)-N-((1-methoxycyclohexyl)methyl) bicyclo[2.2.2]octane-1-carboxamide] here?
The IC50 was 10 to 100 nM.

With `COc1cccc(CCNC(=O)C23CCC(c4ccc(OC/C(=C/F)CN)cc4)(CC2)CC3)c1` [Compound 2.119, (E)-4-(4-((2-(aminomethyl)-3-fluoroallyl)oxy)phenyl)-N-(3-methoxyphenethyl)bicyclo [2.2.2]octane-1-carboxamide] as the molecule, how does the IC50 read?
The IC50 was no more than 10 nM.

Which IC50 does the source give for `NC/C(=C\F)COc1ccc(C23CCC(C(=O)N4CC(O)C4)(CC2)CC3)cc1` [Compound 2.29, (E)-(4-(4-((2-(aminomethyl)-3-fluoroallyl)oxy)phenyl)bicyclo [2.2.2]octan-1-yl)(3-hydroxyazetidin-1-yl)methanone] here?
The IC50 was no more than 10 nM.

How did the IC50 turn out when `NC/C(=C\F)COc1ccc(C23CCC(C(=O)NCC4(F)CCOCC4)(CC2)CC3)cc1` [Compound 2.33, (E)-4-(4-((2-(aminomethyl)-3-fluoroallyl)oxy)phenyl)-N-((4-fluorotetrahydro-2H-pyran-4-yl)methyl)bicyclo[2.2.2]octane-1-carboxamide] was run?
Its IC50 is no more than 10 nM.

Which IC50 does the source give for `NC/C(=C\F)COc1ccc(C23CCC(C(=O)N4CC(OC(F)(F)F)C4)(CC2)CC3)cc1` [Compound 2.94, (E)-(4-(4-((2-(aminomethyl)-3-fluoroallyl)oxy)phenyl)bicyclo [2.2.2]octan-1-yl)(3-(trifluoromethoxy)azetidin-1-yl)methanone] here?
Its IC50 is no more than 10 nM.

Which IC50 does the source give for `NC/C(=C\F)COc1ccc(C2(C(N)=O)CCCCC2)cc1` [Compound 1, (E)-1-(4-((2-(Aminomethyl)-3-fluoroallyl)oxy)phenyl)cyclohexanecarboxamide Hydrochloride] here?
The IC50 was no more than 10 nM.

Which IC50 does the source give for `Cc1cncc(CNC(=O)C23CCC(c4ccc(OC/C(=C/F)CN)cc4)(CC2)CC3)n1` [Compound 2.157, (E)-4-(4-((2-(aminomethyl)-3-fluoroallyl)oxy)phenyl)-N-((6-methylpyrazin-2-yl)methyl)bicyclo[2.2.2]octane-1-carboxamide] here?
The IC50 was no more than 10 nM.

`NC/C(=C\F)COc1ccc(C23CCC(C(=O)NC4CCOCC4)(CC2)C3)cc1` [Compound 4.01, (E)-4-(4-((2-(Aminomethyl)-3-fluoroallyl)oxy)phenyl)-N-(tetrahydro-2H-pyran-4-yl)bicyclo[2.2.1]heptane-1-carboxamide Hydrochloride] was tested. Which IC50 did it give?
Its IC50 is no more than 10 nM.

With `CNC(=O)C12CCC(c3ccc(OC/C(=C/F)CN)cc3)(CC1)C2` [Compound 4, (E)-4-(4-((2-(Aminomethyl)-3-fluoroallyl)oxy)phenyl)-N-methylbicyclo[2.2.1]heptane-1-carboxamide Hydrochloride] as the molecule, how does the IC50 read?
Its IC50 is no more than 10 nM.

`COC(C)(C)CNC(=O)C12CCC(c3ccc(OC/C(=C/F)CN)cc3)(CC1)CC2` [Compound 2.97, (E)-4-(4-((2-(aminomethyl)-3-fluoroallyl)oxy)phenyl)-N-(2-methoxy-2-methylpropyl)bicyclo[2.2.2] octane-1-carboxamide] was tested. Which IC50 did it give?
Its IC50 is no more than 10 nM.
